{"source": "paper PMC3834941", "about": "“Pharmacokinetic Evaluation of a DSPE-PEG2000 Micellar Formulation of Ridaforolimus in Rat” (Pharmaceutics, 2012)", "key": {"[1]": {"assay": "In vitro release by dialysis into PBS pH 7.4, 37 °C", "assay_type": "physicochemical", "conditions": "free drug", "experimental": "The in vitro release of the drug from DSPE-PEG2000 micelles into PBS (pH 7.4) was done by a dialysis method. Dialysis was carried out at 37 °C under sink condition using a 10-kDa MWCO dialysis tubing (SnakeSkin®, Thermo Scientific Inc., Rockford, IL, USA). The initial volume of drug-loaded micelles in the dialysis tubing was 2 mL and the sink solution was 4 L. The PBS was changed several times per day to maintain sink conditions. After pre-determined time intervals, samples were withdrawn from the dialysis bag and analyzed by a reversed phase HPLC column (TSK-GEL® ODS-100Z, Tosoh Bioscience) at 50 °C with UV detection at 290 nm."}, "[2]": {"parameters": "method as in PMID 19228743", "conditions": "humans, clinical Phase I trials; cited from earlier work"}}, "data": [{"smiles": "CO[C@H]1C[C@@H]2CC[C@@H](C)[C@@](O)(O2)C(=O)C(=O)N2CCCC[C@H]2C(=O)O[C@H]([C@H](C)C[C@@H]2CC[C@@H](OP(C)(C)=O)[C@H](OC)C2)CC(=O)[C@H](C)/C=C(\\C)[C@@H](O)[C@@H](OC)C(=O)[C@H](C)C[C@H](C)/C=C/C=C/C=C/1C", "note": "[Ridaforolimus, ridaforolimus]", "values": [{"measurement": "in vitro release t50%", "setting": "[1]", "value": "less than 20 min"}, {"measurement": "in vitro release t90%", "setting": "[1]", "value": 1, "unit": "h"}, {"measurement": "half-life", "setting": "[2]", "value": "45 to 52", "unit": "h"}]}]}
